Measured values as given in US20040086479A1, “Novel dendritic polymers, crosslinked gels, and their biomedical uses” (DUKE UNIVERSITY, priority 2001, published 2004).
Values after ≈ are worked out from the molar mass of the structure shown.

Test: Water solubility
Format: physicochemical

Structure (SMILES)	water solubility
CC[C@@]1(O)C(=O)OCc2c1cc1n(c2=O)Cc2cc3cc(O)ccc3nc2-1 [Example 10HCPT, 10-hydroxycamptothecin]	~6 µM (≈ 2.19 µg/mL)
[O-]c1c(-c2ccccc2)cc(-[n+]2c(-c3ccccc3)cc(-c3ccccc3)cc2-c2ccccc2)cc1-c1ccccc1 [Reichardt's dye]	10^−6 M
